Results reported in patent US20040235890A1, “Remedies for allergic diseases” (priority 2001, published 2004).
Entries after “also recorded” stand apart in the source; their conditions may differ. Structures can show the parent of a compound that is named as a salt.

Assays:
[1] = tested on: NOS; conditions: cited from earlier work
[2] = tested on: Allergic rhinitis model; assay: Allergic rhinitis model (ovalbumin-sensitised guinea pig, pituita weight); assay type: in vivo; conditions: 0.01%, 0.1% and 1.0% solution, 40 uL nasally into both sides, 10 min before 1% ovalbumin; male Crj Hartley guinea pig; monohydrochloride salt
Method: Allergic rhinitis model was produced by administration of ovalbumin to male Crj Hartley guinea pig (6 weeks old) in the procedure shown in table 1.
At day 42, guinea pigs were inserted with tube into the trachea under anesthesia and kept the heat using heat pat. Forty micro liter of (+)-trans-3-imino-5-methyl-7-chloro-2-azabicyclo[4.1.0]heptane monohydrochloride salt (referred to as “compound A”) or physiological saline was administered nasally into both sides. Ten minutes later, 40 uL of 1% ovalbumin was administered nasally into both sides. Thirty minutes after ovalbumin administration, moisture in the nose was removed with absorbent cotton. Fifteen minutes later, absorbent cotton of which weight was measured was inserted into nose for 15 minutes. Pituita weight was calculated by the difference in weight between pre and post insertion.

For `COC(=O)[C@@H](N)CCCNC(=N)N[N+](=O)[O-]` [L-NAME, N-ω-nitro-L-arginine methylester], the “increase in NO production and vascular permeability in allergic conjunctivitis” value ([1]; Cornea, 19(1), 84-91 (2000)) is given as “suppressed”, the “prostaglandin E2 production in acute phase of allergic conjunctivitis” value ([1]; Prostaglandins, 52(6), 431-446 (1996)) is given as “suppresses prostaglandin E2 production” and the “effect on allergic conjunctivitis” value ([1]; in vivo) is given as “the action is weak”.
With `C[C@H]1CC(=N)N[C@@H]2[C@H](Cl)[C@@H]21` (relative stereo) [compound A, (+)-trans-3-imino-5-methyl-7-chloro-2-azabicyclo[4.1.0]heptane monohydrochloride salt] the “Pituita weight (suppression as compared to control, physiological saline)” value [2] was “suppresses pituita weight in dose dependent manner; also recorded: noticeably suppresses pituita weights”.
